# Source: US10953015B2, “Use of adenosine receptor signaling to regulate P-gp function” (CORNELL UNIVERSITY, priority 2016, dated 2021)
# Columns and labels:
# MMP9 = MMP9 expression in HBMVEC (western blot, IFA); assay type: cell-based, human; conditions: western blot and IFA
# Source text: FIG. 8A is a schematic diagram of the experimental procedure for analysis of Lexiscan®'s effect on P-gp solubility and excretion in primary brain endothelial cells (“HBMVEC”). FIGS. 8B-8C are western blots and graphs summarizing the experimental result of each western blot. FIGS. 8B-8C show the analysis of P-gp expression of HBMVEC upon activation with Lexiscan® at different time points after lysis with RIPA buffer (FIG. 8B) or CSK buffer to measure P-gp levels in the cytoskeletal fraction (FIG. 8C). Band intensity was normalized to GAPDH and graphed. […] Band intensity was normalized using GAPDH and plotted. FIG. 8E is a western blot of secreted P-gp in HBMVEC upon activation with Lexiscan® in absence or presence of an MMP9 inhibitor: both short and long exposures of western blot from MMP9 inhibitor-treated samples are shown. Band intensity was plotted as a graph. […] FIG. 8H is a graph summarizing the intensity of fluorescence of MMP9 from FIG. 8G. Fluorescent intensity of MMP9 was quantified and plotted as graph (n=20). **P<0.01 (2-tailed Student's t test, 1 representative result of 3 different experiments).
# HCMEC-D3 and HBMVEC cells were plated in 12-well plates and were grown until they reached 100% confluency. […] The intensity of band was analyzed with densitometric analysis and plotted as a graph for analysis of time-course effect of AR signaling on P-gp expression.
# P-gp and MMP9 = experiment: Immunoprecipitation/IFA of P-gp with MMP9 in HBMVEC; assay type: cell-based, human; conditions: 1 μM for 5 minutes
# Source text: FIG. 8A is a schematic diagram of the experimental procedure for analysis of Lexiscan®'s effect on P-gp solubility and excretion in primary brain endothelial cells (“HBMVEC”). FIGS. 8B-8C are western blots and graphs summarizing the experimental result of each western blot. FIGS. 8B-8C show the analysis of P-gp expression of HBMVEC upon activation with Lexiscan® at different time points after lysis with RIPA buffer (FIG. 8B) or CSK buffer to measure P-gp levels in the cytoskeletal fraction (FIG. 8C). Band intensity was normalized to GAPDH and graphed. […] Band intensity was normalized using GAPDH and plotted. FIG. 8E is a western blot of secreted P-gp in HBMVEC upon activation with Lexiscan® in absence or presence of an MMP9 inhibitor: both short and long exposures of western blot from MMP9 inhibitor-treated samples are shown. Band intensity was plotted as a graph. FIG. 8F is a western blot showing the results of an Immunoprecipitation assay of MMP9 with lysate from HBMVEC treated with vehicle (control) or 1 μM of Lexiscan® for 5 minutes. P-gp was pulled down using anti-P-gp antibody and immunoblotted with an anti-MMP9 antibody. […] FIG. 8H is a graph summarizing the intensity of fluorescence of MMP9 from FIG. 8G. Fluorescent intensity of MMP9 was quantified and plotted as graph (n=20). **P<0.01 (2-tailed Student's t test, 1 representative result of 3 different experiments). […]
# P-gp [1] = experiment: Ubiquitination of P-gp in primary human brain endothelial cells (immunoprecipitation, IFA); assay type: cell-based; conditions: 15 minutes
# Description: FIG. 10A is a western blot showing immunoprecipitation analysis of ubiquitination of P-gp in human primary brain endothelial cells upon activation with Lexiscan® for 15 minutes. P-gp was pulled down with an anti-P-gp antibody and immunoblotted with an anti-ubiquitin antibody. FIG. 10B are immunofluorescence microscopy images depicting ubiquitination of P-gp in human primary brain endothelial cells upon activation with Lexiscan® for 15 minutes. Cells were fixed, permeabilized, and stained with an anti-P-gp (green) and anti-ubiquitin (red) antibody. Nucleus was counterstained with DAPI (blue). The scale bar indicates 25 μm. FIG. 10C is a schematic diagram depicting the mechanism of P-gp down-regulation by Lexiscan®. Upon activation of A2A AR, P-gp is cleaved by MMP9 and secreted to the extracellular space (a), or ubiquitinated and digested by proteasome (b), or can relocate from the soluble fraction to the insoluble fraction (c). These mechanisms may occur independently or in combination.
# 4 G Sepharose beads were purchased from Invitrogen and incubated with human P-gp antibody (BD Biosciences) overnight at 4° C. using a rocking shaker. Beads were washed twice using lysis buffer containing protease inhibitor, and lysates from primary brain endothelial cells were incubated overnight at 4° C. using a rocking shaker. […]
# P-gp [2] = experiment: Rho123 accumulation in MCF7 breast cancer cells; assay type: cell-based, human; conditions: 0.025 μM Lexiscan® concomitant with Rho123, vs vehicle control
# P-gp [3] = experiment: P-gp expression in HEK293T kidney cell line (IFA MFI, western blot); assay type: cell-based, human; conditions: Lexiscan® 1, 0.5, 0.1 μM
# Description: FIGS. 20A and 20B illustrate that Lexiscan® downregulates P-gp expression in the kidney cell line HEK293T while treatment with antagonist SCH58261 blocks Lexiscan®'s effects. […] HEK293T cells were grown to confluency on coverslips, and treated with varying concentrations of Lexiscan® (1, 0.5, and 0.1 μM) for 15 minutes. Cells were permeabilized and then stained with an antibody to P-gp (C219) and visualized under a fluorescent microscope. FIG. 20B is a graph of the MFI of P-gp in FIG. 20A. DMSO vs. Lexiscan® (“Lex”), *=P<0.05, Lexiscan® (“Lex”)+SCH58261 (“SCH”), ****P<0.0001.
# HEK293T transformed kidney cells were treated with varying concentration of Lexiscan® (1, 0.5, 0.1 μM). Cells were lysed with lysis buffer ([…]), containing protease inhibitor cocktail. Samples were loaded on 7% SDS PAGE at 100V for 1 hour and transferred to nitrocellulose paper. The intensity of bands were analyzed by densitometry and plotted as a graph. Statistics: two-tailed student's t test: *=P<0.5, ****=P<0.0001.
# Applicants investigated whether A2A AR agonists could modulate P-gp expression in the HEK293T human kidney cell line. HEK293T cells were grown to confluency on coverslips and treated with varying concentrations of Lexiscan, Lexiscan® plus the A2A antagonist (SCH58261), or vehicle control for 15 minutes. Cells were then permeabilized, stained with an antibody to P-gp, and visualized under a fluorescent microscope (FIG. 20A). The mean fluorescence intensity (MFI) of P-gp was quantified and graphed in FIG. 20B.
# HEK293T cells were treated with various concentrations of Lexiscan, lysed, loaded onto an SDS-PAGE gel, transferred to a nitrocellulose membrane, and used for western blot analysis.
structure (smiles),measurement,setting,value
"CNC(=O)c1cnn(-c2nc(N)c3ncn([C@@H]4O[C@H](CO)[C@@H](O)[C@H]4O)c3n2)c1 [Lexiscan®, 1-[6-amino-9-[(2R,3R,4S,5R)-3,4-dihydroxy-5-(hydroxymethyl)oxolan-2-yl]purin-2-yl]-N-methylpyrazole-4-carboxamide]",MMP9 expression,MMP9,Increased expression of MMP9 was observed beginning at 5 minutes
same,Interaction between P-gp and MMP9,P-gp and MMP9,induced rapid interaction between P-gp and MMP9
same,Ubiquitinylation of P-gp,P-gp [1],induced increased ubiquitinylation of P-gp compared with vehicle control
same,Rho123 accumulation,P-gp [2],significant Rho123 accumulation occurred by 15 minutes and 60 minutes
same,P-gp expression (western blot densitometry),P-gp [3],significantly down-regulated P-gp expression in transformed HEK293T cells
same,P-gp expression (MFI),P-gp [3]; 15 minutes,down-regulates P-gp expression in HEK293T cells
